Assay results from US8575201B2 (Boehringer Ingelheim International GmbH, priority 2010, dated 2013).

Experiments:
[1] = target: recombinant human FLAP protein (Homo sapiens (Human), UniProt P20292); test: FLAP binding assay (Scintillation Proximity Assay, displacement of [125I]L-691,831); details: read-out: FLAP SPA IC50
Procedure: Assessment of Biological Properties 1. Binding Assay: Compounds are assessed for the ability to bind to FLAP in a binding assay that measures compound-specific displacement of an iodinated (^125I) FLAP inhibitor via a Scintillation Proximity Assay format (adapted from S. Charleson et al., Mol. Pharmacol., 1992, 41, 873-879). […] The cells are lysed with a Dounce homogenizer and the material is centrifuged at 10,000×g for 10 minutes. The supernatant is then collected and centrifuged at 100,000×g for 60 minutes. To prepare membrane protein for an assay, an aliquot of the 100,000×g pellet is resuspended in 1 ml of buffer A, Dounce homogenized, and finally subjected to polytron mixing (30 seconds). […] Mol. Pharmacol., 41, 873-879, 1992) and finally 50 μl of the bead/protein mixture. (final concentrations: beads, 200 μg/well; protein, 5 μg/well; […] The plates are shaken for 2 h before reading on a Microbeta plate reader.

[2] = test system: synthesis of LTB4 in human whole blood; test: Human whole blood LTB4 production inhibition assay; assay type: cell-based; details: calcimycin stimulated, read-out: hWB LTB4 IC50
Procedure: Compounds are additionally tested in a human whole blood assay to determine their ability to inhibit the synthesis of LTB4 in a cellular system. Compounds are combined with heparinized human whole blood and incubated for 15 minutes at 37° C. Calcimycin (20 μM final, prepared in phosphate-buffered saline, pH 7.4) is then added and the mixture is incubated for another 30 minutes at 37° C. The samples are centrifuged for 5 min at low speed (1500×g) and the plasma layer is removed. Plasma LTB4 concentrations are then measured using an antibody-based homogenous time-resolved fluorescence method (CisBio, Bedford, Mass.).

Sequence of recombinant human FLAP protein (P20292 whole entry): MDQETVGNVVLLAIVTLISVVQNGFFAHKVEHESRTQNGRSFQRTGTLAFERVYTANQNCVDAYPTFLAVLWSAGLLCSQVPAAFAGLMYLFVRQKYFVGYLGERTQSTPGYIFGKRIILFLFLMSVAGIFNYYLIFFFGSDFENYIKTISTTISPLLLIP

SMILES	IC50 [1] [nM]	IC50 [2] [nM]
CCOC(=O)CCN1CCN(c2ccc(-c3nc(C4(c5ccc(-c6cnc(N)nc6)nc5)CCC4)no3)cn2)CC1 [Example 47, ethyl 3-{4-[5-(3-{1-[6-(2-aminopyrimidin-5-yl)pyridin-3-yl]cyclobutyl}-1,2,4-oxadiazol-5-yl)pyridin-2-yl]piperazin-1-yl}propanoate]	3.4	170
Nc1ncc(-c2ccc(C3(c4noc(-c5ccc(N6CCS(=O)(=O)CC6)nc5)n4)CCC3)cn2)cn1 [Example 49, 5-[5-(1-{5-[6-(1,1-dioxidothiomorpholin-4-yl)pyridin-3-yl]-1,2,4-oxadiazol-3-yl}cyclobutyl)pyridin-2-yl]pyrimidin-2-amine]	3.7	180
Nc1ncc(-c2ccc(C3(c4noc(-c5ccc(N6CCN(CCC(=O)O)CC6)nc5)n4)CCC3)cn2)cn1 [Example 53, 3-{4-[5-(3-{1-[6-(2-aminopyrimidin-5-yl)pyridin-3-yl]cyclobutyl}-1,2,4-oxadiazol-5-yl)pyridin-2-yl]piperazin-1-yl}propanoic acid]	2.6	2600
Nc1ncc(-c2ccc(C3(c4noc(-c5cnn(C6COC6)c5)n4)CCC3)cn2)cn1 [Example 55, 5-[5-(1-{5-[1-(oxetan-3-yl)-1H-pyrazol-4-yl]-1,2,4-oxadiazol-3-yl}-cyclobutyl)pyridin-2-yl]pyrimidin-2-amine]	13	52
CNC(=O)Cn1cc(-c2nc(C3(c4ccc(-c5cnc(N)nc5)nc4)CCC3)no2)cn1 [Example 58, 2-[4-(3-{1-[6-(2-aminopyrimidin-5-yl)pyridin-3-yl]cyclobutyl}-1,2,4-oxadiazol-5-yl)-1H-pyrazol-1-yl]-N-methylacetamide]	22	250
Nc1ncc(-c2ccc(C3(c4noc(-c5ccc(N6CCNCC6)cc5)n4)CCC3)cn2)cn1 [Example 62, 5-[5-(1-{5-[4-(piperazin-1-yl)phenyl]-1,2,4-oxadiazol-3-yl}cyclobutyl)pyridin-2-yl]pyrimidin-2-amine]	2.6	72
CCn1cc(-c2nc(C3(c4ccc(-c5cnc(N)nc5)nc4)CCC3)no2)cn1 [Example 63, 5-(5-{1-[5-(1-ethyl-1H-pyrazol-4-yl)-1,2,4-oxadiazol-3-yl]cyclobutyl}pyridin-2-yl)pyrimidin-2-amine]	8.8	190
CC(C)(C(=O)O)n1cc(-c2nc(C3(c4ccc(-c5cnc(N)nc5)nc4)CCC3)no2)cn1 [Example 65, 2-[4-(3-{1-[6-(2-aminopyrimidin-5-yl)pyridin-3-yl]cyclobutyl}-1,2,4-oxadiazol-5-yl)-1H-pyrazol-1-yl]-2-methylpropanoic acid]	590	> 5000
Nc1ncc(-c2ccc(C3(c4noc(-c5cnn(C(F)F)c5)n4)CCC3)cn2)cn1 [Example 66, 5-[5-(1-{5-[1-(difluoromethyl)-1H-pyrazol-4-yl]-1,2,4-oxadiazol-3-yl}cyclobutyl)pyridin-2-yl]pyrimidin-2-amine]	7.4	200
Nc1ncc(-c2ccc(C3(c4noc(-c5cnn(CCF)c5)n4)CCC3)cn2)cn1 [Example 67, 5-[5-(1-{5-[1-(2-fluoroethyl)-1H-pyrazol-4-yl]-1,2,4-oxadiazol-3-yl}cyclobutyl)pyridin-2-yl]pyrimidin-2-amine]	9.5	69
Nc1ncc(-c2ccc(C3(c4noc(-c5cnn(CC(F)(F)F)c5)n4)CCC3)cn2)cn1 [Example 69, 5-[5-(1-{5-[1-(2,2,2-trifluoroethyl)-1H-pyrazol-4-yl]-1,2,4-oxadiazol-3-yl}cyclobutyl)pyridin-2-yl]pyrimidin-2-amine]	7.6	170
NC(=O)Cn1cc(-c2nc(C3(c4ccc(-c5cnc(N)nc5)nc4)CCC3)no2)cn1 [Example 70, 2-[4-(3-{1-[6-(2-aminopyrimidin-5-yl)pyridin-3-yl]cyclobutyl}-1,2,4-oxadiazol-5-yl)-1H-pyrazol-1-yl]acetamide]	150	2100
Nc1ncc(-c2ccc(C3(c4noc(-c5cccnc5)n4)CCOCC3)cn2)cn1 [Example 72, 5-(5-{4-[5-(pyridin-3-yl)-1,2,4-oxadiazol-3-yl]tetrahydro-2H-pyran-4-yl}pyridin-2-yl)pyrimidin-2-amine]	610	2300
Nc1ncc(-c2ccc(C3(c4noc(-c5cccnc5)n4)CCC3)cn2)cn1 [Example 73, 5-{5-[1-(5-Pyridin-3-yl-1,2,4-oxadiazol-3-yl)-cyclobutyl]-pyridin-2-yl}-pyrimidin-2-ylamine]	25	460
Cc1ccc(-c2nc(C3(c4ccc(-c5cnc(N)nc5)nc4)CCC3)no2)cn1 [Example 74, 5-(5-{1-[5-(6-methylpyridin-3-yl)-1,2,4-oxadiazol-3-yl]cyclobutyl}pyridin-2-yl)pyrimidin-2-amine]	4.5	210
Nc1ncc(-c2ccc(C3(c4noc(-c5c[nH]cn5)n4)CCC3)cn2)cn1 [Example 75, 5-(5-{1-[5-(1H-imidazol-4-yl)-1,2,4-oxadiazol-3-yl]cyclobutyl}pyridin-2-yl)pyrimidin-2-amine]	19	580

The remaining molecules from weak to strong by IC50 [1], led by results:

IC50 [1] [nM]	IC50 [2] [nM]	SMILES
83	610	CN(C)C(=O)Cn1cc(-c2nc(C3(c4ccc(-c5cnc(N)nc5)nc4)CCC3)no2)cn1 [Example 59, 2-[4-(3-{1-[6-(2-amino-pyrimidin-5-yl)-pyridin-3-yl]-cyclobutyl}-1,2,4-oxadiazol-5-yl)-pyrazol-1-yl]-N,N-dimethyl-acetamide]
58	390	CS(=O)(=O)Cn1cc(-c2nc(C3(c4ccc(-c5cnc(N)nc5)nc4)CCC3)no2)cn1 [Example 71, 5-{5-[1-(5-{1-[(methylsulfonyl)methyl]-1H-pyrazol-4-yl}-1,2,4-oxadiazol-3-yl)cyclobutyl]pyridin-2-yl}pyrimidin-2-amine]
28	120	CC(C)(O)Cn1cc(-c2nc(C3(c4ccc(-c5cnc(N)nc5)nc4)CCC3)no2)cn1 [Example 54, 1-[4-(3-{1-[6-(2-aminopyrimidin-5-yl)pyridin-3-yl]cyclobutyl}-1,2,4-oxadiazol-5-yl)-1H-pyrazol-1-yl]-2-methylpropan-2-ol]
7.9	150	Nc1ncc(-c2ccc(C3(c4noc(-c5cnc(N6CCNCC6)cn5)n4)CCC3)cn2)cn1 [Example 60, 5-[5-(1-{5-[5-(piperazin-1-yl)pyrazin-2-yl]-1,2,4-oxadiazol-3-yl}cyclobutyl)pyridin-2-yl]pyrimidin-2-amine]
7.2	170	CC(C)n1cc(-c2nc(C3(c4ccc(-c5cnc(N)nc5)nc4)CCC3)no2)cn1 [Example 64, 5-[5-(1-{5-[1-(propan-2-yl)-1H-pyrazol-4-yl]-1,2,4-oxadiazol-3-yl}cyclobutyl)pyridin-2-yl]pyrimidin-2-amine]
6.1	160	Nc1ncc(-c2ccc(C3(c4noc(-c5cnn(CC(F)F)c5)n4)CCC3)cn2)cn1 [Example 68, 5-[5-(1-{5-[1-(2,2-difluoroethyl)-1H-pyrazol-4-yl]-1,2,4-oxadiazol-3-yl}cyclobutyl)pyridin-2-yl]pyrimidin-2-amine]
4.8	150	CS(=O)(=O)CCNc1ccc(-c2nc(C3(c4ccc(-c5cnc(N)nc5)nc4)CCC3)no2)cn1 [Example 51, 5-(5-{1-[5-(6-{[2-(methylsulfonyl)ethyl]amino}pyridin-3-yl)-1,2,4-oxadiazol-3-yl]cyclobutyl}pyridin-2-yl)pyrimidin-2-amine]
2.7	150	CS(=O)(=O)N1CCN(c2ccc(-c3nc(C4(c5ccc(-c6cnc(N)nc6)nc5)CCC4)no3)cn2)CC1 [Example 50, 5-{5-[1-(5-{6-[4-(methylsulfonyl)piperazin-1-yl]pyridin-3-yl}-1,2,4-oxadiazol-3-yl)cyclobutyl]pyridin-2-yl}pyrimidin-2-amine]
2.6	180	CS(=O)(=O)C1CCN(c2ccc(-c3nc(C4(c5ccc(-c6cnc(N)nc6)nc5)CCC4)no3)cn2)C1 (stereo not drawn) [Example 52, 5-{5-[1-(5-{6-[3-(methylsulfonyl)pyrrolidin-1-yl]pyridin-3-yl}-1,2,4-oxadiazol-3-yl)cyclobutyl]pyridin-2-yl}pyrimidin-2-amine]
2.4	110	C[C@H](O)CNc1ccc(-c2nc(C3(c4ccc(-c5cnc(N)nc5)nc4)CCC3)no2)cn1 [Example 46, (2S)-1-{[5-(3-{1-[6-(2-aminopyrimidin-5-yl)pyridin-3-yl]cyclobutyl}-1,2,4-oxadiazol-5-yl)pyridin-2-yl]amino}propan-2-ol]
2.2	140	Nc1ncc(-c2ccc(C3(c4noc(-c5ccc(N6CC[C@H](O)C6)nc5)n4)CCC3)cn2)cn1 [Example 48, (3S)-1-[5-(3-{1-[6-(2-aminopyrimidin-5-yl)pyridin-3-yl]cyclobutyl}-1,2,4-oxadiazol-5-yl)pyridin-2-yl]pyrrolidin-3-ol]
